Results reported in ChEMBL document CHEMBL2029210, “Synthesis of constrained benzocinnolinone analogues of CEP-26401 (irdabisant) as potent, selective histamine H3 receptor inverse agonists” (Bioorg Med Chem Lett, 2012).

Columns and labels:
[1] = target: T1, Histamine H3 receptor (Homo sapiens, UniProt Q9Y5N1); assay: Displacement of [3H]NAMH from human histamine H3 receptor expressed in CHO cell membrane; format: cell membranes
[2] = target: Histamine H3 receptor (Rattus norvegicus, UniProt Q9QYN8); assay: Displacement of [3H]NAMH from rat histamine H3 receptor expressed in CHO cell membrane; format: cell membranes
[3] = target: Cytochrome P450 2D6 (Homo sapiens, UniProt P10635); assay: Inhibition of CYP2D6; format: ADME
[4] = organism: Homo sapiens; assay: Selectivity ratio of Ki for human H2 receptor to Ki for human H3 receptor
[5] = target: T2, Cytochrome P450 1A2 (Homo sapiens, UniProt P05177); assay: Inhibition of CYP1A2; format: ADME
T2 sequence (P05177 whole entry): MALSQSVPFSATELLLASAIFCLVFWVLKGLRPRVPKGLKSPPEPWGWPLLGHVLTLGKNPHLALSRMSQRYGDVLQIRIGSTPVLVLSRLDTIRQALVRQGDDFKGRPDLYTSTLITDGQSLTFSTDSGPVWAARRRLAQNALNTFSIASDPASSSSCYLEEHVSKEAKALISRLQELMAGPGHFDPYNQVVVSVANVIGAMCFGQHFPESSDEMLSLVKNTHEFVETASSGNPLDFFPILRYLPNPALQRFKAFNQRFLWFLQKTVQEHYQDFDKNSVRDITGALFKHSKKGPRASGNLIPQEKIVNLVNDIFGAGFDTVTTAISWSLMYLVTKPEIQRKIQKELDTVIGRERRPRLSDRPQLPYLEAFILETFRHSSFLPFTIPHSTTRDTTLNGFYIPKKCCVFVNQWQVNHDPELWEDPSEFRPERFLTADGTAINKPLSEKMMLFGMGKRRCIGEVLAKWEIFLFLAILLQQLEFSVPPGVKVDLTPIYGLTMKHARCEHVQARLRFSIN

[6] = target: Histamine H1 receptor (Homo sapiens) (UniProt P35367); assay: Binding affinity to human histamine H1 receptor at 10 uM by radioligand binding assay
[7] = target: Cytochrome P450 2C19 (Homo sapiens, UniProt P33261); assay: Inhibition of CYP2C19; format: ADME
[8] = organism: Homo sapiens; assay: Selectivity ratio of Ki for human H4 receptor to Ki for human H3 receptor
[9] = Clearance in rat at 1 mg/kg, iv; format: ADME, organism-based; parameters: dose 1 mg/kg, route intravenous; details: in vivo
[10] = Oral bioavailability in rat at 5 mg/kg; format: ADME, organism-based; details: in vivo
[11] = target: Cytochrome P450 3A4 (Homo sapiens, UniProt P08684); assay: Inhibition of CYP3A4; format: ADME
[12] = target: T1, Histamine H3 receptor; assay: Inverse agonist activity at human H3 receptor by [35S]GTPgamma binding assay; format: functional
[13] = (§1) Half life in rat at 1 mg/kg, iv; format: ADME, organism-based; parameters: dose 1 mg/kg, route intravenous; details: in vivo
[14] = target: Histamine H2 receptor (Homo sapiens) (UniProt P25021); assay: Binding affinity to human histamine H2 receptor at 10 uM by radioligand binding assay
[15] = AUC in rat at 5 mg/kg, po; format: ADME, organism-based; parameters: dose 5 mg/kg, route oral; details: plasma
[16] = target: hERG (KCNH2) (Homo sapiens, UniProt Q12809); assay: Displacement of astemizole from human ERG at 10 uM; details: probe astemizole
[17] = target: Histamine H4 receptor (Homo sapiens) (UniProt Q9H3N8); assay: Binding affinity to human histamine H4 receptor at 10 uM by radioligand binding assay
[18] = target: Cytochrome P450 2C9 (Homo sapiens, UniProt P11712); assay: Inhibition of CYP2C9; format: ADME
[19] = (§2) Volume of distribution in rat at 1 mg/kg, iv; format: ADME, organism-based; parameters: dose 1 mg/kg, route intravenous; details: in vivo
[20] = Cmax in rat at 5 mg/kg, po; format: ADME, organism-based; parameters: dose 5 mg/kg, route oral; details: in vivo
[21] = organism: Homo sapiens; assay: Selectivity ratio of Ki for human H1 receptor to Ki for human H3 receptor
[22] = Drug uptake in rat brain at 5 mg/kg, po after 6 hrs; format: ADME, organism-based; parameters: dose 5 mg/kg, route oral; details: read-out: Drug uptake
[23] = Ratio of drug uptake in brain to plasma in rat at 5 mg/kg, po; format: ADME, organism-based; parameters: dose 5 mg/kg, route oral; details: read-out: BPR
[24] = tested on: Rattus norvegicus; assay: as §1; format: ADME, organism-based; parameters: dose 1 mg/kg, route intravenous; details: in vivo
[25] = tested on: Rattus norvegicus; assay: as §2; format: ADME, organism-based; parameters: dose 1 mg/kg, route intravenous; details: in vivo

Histamine H2 receptor (Homo sapiens), sequence (P25021 whole entry): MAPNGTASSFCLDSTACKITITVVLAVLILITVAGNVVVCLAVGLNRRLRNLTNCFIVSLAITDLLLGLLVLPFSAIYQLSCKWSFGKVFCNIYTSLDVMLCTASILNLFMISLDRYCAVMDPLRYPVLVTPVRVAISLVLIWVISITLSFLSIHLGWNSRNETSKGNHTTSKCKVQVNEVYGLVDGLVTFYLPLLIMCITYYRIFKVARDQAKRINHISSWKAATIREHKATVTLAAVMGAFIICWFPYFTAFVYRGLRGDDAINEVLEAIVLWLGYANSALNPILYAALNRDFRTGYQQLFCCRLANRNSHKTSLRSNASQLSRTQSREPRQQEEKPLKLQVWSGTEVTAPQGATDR
T1 sequence (Q9Y5N1 whole entry): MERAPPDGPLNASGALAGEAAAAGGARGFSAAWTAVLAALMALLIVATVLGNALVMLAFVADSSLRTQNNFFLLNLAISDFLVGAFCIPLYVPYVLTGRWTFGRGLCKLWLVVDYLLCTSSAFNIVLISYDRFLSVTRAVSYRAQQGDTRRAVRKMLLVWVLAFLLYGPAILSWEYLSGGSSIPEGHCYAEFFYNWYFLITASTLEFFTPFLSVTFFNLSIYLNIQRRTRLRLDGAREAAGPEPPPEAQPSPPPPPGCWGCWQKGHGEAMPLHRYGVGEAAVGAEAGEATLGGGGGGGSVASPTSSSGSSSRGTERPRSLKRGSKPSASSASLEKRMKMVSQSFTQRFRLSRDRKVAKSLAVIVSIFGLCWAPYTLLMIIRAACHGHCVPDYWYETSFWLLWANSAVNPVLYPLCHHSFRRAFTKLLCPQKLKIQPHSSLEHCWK
Histamine H3 receptor (Rattus norvegicus, UniProt Q9QYN8), sequence (Q9QYN8 whole entry): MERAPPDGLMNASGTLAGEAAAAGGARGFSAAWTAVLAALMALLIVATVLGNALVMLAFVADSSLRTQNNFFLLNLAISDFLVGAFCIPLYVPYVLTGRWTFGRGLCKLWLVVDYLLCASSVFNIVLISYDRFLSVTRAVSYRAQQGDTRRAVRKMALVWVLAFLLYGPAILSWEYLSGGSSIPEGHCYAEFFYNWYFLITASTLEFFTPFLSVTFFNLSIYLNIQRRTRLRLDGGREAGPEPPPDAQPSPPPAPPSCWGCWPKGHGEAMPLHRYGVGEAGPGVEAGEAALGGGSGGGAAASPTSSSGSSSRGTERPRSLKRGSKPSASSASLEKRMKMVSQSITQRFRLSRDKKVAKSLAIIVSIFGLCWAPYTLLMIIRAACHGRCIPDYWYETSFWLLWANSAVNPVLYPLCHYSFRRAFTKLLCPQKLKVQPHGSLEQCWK
Histamine H1 receptor (Homo sapiens), sequence (P35367 whole entry): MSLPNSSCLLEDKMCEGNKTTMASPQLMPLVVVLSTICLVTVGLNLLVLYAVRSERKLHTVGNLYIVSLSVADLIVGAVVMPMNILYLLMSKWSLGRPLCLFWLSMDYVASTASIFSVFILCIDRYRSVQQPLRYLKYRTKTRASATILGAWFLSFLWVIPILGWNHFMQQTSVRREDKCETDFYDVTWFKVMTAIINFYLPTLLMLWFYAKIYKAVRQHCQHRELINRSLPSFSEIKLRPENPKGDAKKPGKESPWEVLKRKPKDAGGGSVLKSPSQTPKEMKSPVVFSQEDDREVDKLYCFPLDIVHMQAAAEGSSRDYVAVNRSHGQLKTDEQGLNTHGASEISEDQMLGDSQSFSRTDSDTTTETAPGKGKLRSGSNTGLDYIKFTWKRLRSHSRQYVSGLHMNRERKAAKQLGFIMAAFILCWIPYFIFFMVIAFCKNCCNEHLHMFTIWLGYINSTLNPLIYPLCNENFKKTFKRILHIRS
hERG (KCNH2), sequence (Q12809 whole entry): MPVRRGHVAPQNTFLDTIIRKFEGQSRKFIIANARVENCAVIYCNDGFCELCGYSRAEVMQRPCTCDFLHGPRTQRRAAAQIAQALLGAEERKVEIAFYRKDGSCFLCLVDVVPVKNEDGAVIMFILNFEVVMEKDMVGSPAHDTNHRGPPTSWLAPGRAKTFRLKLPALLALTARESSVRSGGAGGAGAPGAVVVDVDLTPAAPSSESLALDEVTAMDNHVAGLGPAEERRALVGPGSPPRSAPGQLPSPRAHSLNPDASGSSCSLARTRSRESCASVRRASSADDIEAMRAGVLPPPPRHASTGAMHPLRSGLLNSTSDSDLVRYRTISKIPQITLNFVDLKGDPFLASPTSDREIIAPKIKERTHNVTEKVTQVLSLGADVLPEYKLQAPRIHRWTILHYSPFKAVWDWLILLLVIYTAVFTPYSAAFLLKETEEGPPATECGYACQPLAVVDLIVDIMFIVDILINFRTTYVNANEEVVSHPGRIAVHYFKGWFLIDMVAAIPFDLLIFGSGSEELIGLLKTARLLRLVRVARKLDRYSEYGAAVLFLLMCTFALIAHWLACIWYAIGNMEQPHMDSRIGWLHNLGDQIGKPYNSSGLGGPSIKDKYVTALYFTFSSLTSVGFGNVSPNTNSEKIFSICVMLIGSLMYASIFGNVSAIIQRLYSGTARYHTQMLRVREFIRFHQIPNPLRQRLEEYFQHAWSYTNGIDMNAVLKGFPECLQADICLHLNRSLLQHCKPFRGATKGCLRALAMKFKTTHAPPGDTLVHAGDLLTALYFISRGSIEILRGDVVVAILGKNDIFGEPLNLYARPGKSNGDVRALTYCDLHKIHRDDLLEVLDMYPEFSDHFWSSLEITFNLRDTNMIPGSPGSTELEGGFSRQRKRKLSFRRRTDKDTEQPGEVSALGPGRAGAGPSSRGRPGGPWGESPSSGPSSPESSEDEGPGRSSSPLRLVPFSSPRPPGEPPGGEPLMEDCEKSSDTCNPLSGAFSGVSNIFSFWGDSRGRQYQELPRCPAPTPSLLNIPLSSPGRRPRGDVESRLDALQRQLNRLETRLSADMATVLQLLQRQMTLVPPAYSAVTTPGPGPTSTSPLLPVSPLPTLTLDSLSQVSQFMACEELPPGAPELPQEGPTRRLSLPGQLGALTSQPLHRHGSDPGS
Cytochrome P450 2C19, sequence (P33261 whole entry): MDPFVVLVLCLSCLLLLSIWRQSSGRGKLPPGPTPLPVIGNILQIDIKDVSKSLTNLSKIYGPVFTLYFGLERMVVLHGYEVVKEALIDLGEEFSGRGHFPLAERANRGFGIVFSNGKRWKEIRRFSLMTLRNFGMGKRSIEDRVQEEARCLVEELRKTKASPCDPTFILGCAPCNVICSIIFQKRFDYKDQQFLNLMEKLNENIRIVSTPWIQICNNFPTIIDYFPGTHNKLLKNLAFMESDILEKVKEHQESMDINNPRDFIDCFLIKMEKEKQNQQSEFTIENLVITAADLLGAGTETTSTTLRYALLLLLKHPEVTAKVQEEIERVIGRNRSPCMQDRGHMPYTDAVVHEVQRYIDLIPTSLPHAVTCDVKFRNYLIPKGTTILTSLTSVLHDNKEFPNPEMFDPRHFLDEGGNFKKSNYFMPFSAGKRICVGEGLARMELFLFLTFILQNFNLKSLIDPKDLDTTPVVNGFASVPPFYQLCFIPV
Cytochrome P450 2D6, sequence (P10635 whole entry): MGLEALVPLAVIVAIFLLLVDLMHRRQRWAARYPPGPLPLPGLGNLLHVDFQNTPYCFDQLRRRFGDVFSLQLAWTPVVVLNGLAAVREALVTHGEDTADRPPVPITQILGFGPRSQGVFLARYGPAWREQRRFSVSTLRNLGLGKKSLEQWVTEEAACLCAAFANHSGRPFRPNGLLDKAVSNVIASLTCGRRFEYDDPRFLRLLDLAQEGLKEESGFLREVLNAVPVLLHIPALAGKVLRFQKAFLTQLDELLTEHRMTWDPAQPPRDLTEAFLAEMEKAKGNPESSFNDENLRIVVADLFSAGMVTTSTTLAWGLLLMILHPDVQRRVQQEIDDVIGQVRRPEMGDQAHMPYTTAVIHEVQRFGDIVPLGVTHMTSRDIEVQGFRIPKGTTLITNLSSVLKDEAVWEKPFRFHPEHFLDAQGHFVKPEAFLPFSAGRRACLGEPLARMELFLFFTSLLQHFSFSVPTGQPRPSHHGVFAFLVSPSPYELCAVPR
Cytochrome P450 2C9, sequence (P11712 whole entry): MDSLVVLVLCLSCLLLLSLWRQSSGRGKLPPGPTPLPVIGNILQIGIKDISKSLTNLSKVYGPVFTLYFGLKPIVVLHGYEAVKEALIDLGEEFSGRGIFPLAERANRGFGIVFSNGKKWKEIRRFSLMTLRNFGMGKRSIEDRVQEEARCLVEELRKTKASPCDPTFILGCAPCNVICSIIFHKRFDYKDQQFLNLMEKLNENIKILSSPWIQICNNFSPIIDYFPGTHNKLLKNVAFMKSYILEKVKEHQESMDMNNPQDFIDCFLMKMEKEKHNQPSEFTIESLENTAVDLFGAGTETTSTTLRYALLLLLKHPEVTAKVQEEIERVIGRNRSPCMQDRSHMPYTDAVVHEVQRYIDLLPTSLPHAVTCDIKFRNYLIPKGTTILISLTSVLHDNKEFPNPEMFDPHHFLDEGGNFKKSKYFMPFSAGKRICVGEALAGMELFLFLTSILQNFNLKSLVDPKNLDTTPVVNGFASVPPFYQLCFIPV
Cytochrome P450 3A4, sequence (P08684 whole entry): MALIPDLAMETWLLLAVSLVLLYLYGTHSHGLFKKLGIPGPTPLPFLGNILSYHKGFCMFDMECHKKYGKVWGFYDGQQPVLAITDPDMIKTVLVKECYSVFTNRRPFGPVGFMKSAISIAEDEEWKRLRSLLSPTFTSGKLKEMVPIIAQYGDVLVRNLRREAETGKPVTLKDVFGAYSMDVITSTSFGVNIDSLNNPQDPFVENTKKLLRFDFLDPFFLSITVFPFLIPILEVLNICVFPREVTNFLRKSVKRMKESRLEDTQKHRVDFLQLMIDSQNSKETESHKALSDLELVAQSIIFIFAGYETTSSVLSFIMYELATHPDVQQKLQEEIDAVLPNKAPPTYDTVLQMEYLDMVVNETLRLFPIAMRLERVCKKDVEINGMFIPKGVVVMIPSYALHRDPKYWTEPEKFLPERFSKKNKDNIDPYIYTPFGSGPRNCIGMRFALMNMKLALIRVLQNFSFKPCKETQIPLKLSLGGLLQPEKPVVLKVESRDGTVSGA

Row | Ki [1] | Ki [2] | Ratio Ki [4] | inhibition [6] | Ratio Ki [8] | clearance [9] | bioavailability [10] | half-life [13] | inhibition [14] | AUC [15] | inhibition [17] | Vd [19] | Cmax [20] | Ratio Ki [21] | SMILES | other results
1 | 16 nM | 23 nM | – | – | – | – | – | – | – | – | – | – | – | – | C[C@@H]1CCCN1CCCOc1ccc2c(c1)CCc1cc(=O)n(-c3ccccc3)nc1-2 | –
2 | 3.6 nM | 8.3 nM | > 1000 | < 40% | > 1000 | 36 mL/min/kg | 3% | 24 min | < 40% | 80 ng·h/mL | < 40% | 1.3 L/kg | 24 ng/mL | > 1000 | C[C@@H]1CCCN1CCCOc1ccc2c(c1)CCc1cc(=O)n(C)nc1-2 | IC50 [3]: > 30000 nM; IC50 [5]: > 30000 nM; IC50 [7]: > 30000 nM; IC50 [11]: > 30000 nM; EC50 [12]: 1.7 nM; inhibition at 10 µM [16]: 34%; IC50 [18]: > 30000 nM
3 | 4.2 nM | 17 nM | > 1000 | < 40% | > 1000 | – | – | – | < 40% | – | < 40% | – | – | > 1000 | CC(C)n1nc2c(cc1=O)CCc1cc(OCCCN3CCC[C@H]3C)ccc1-2 | –
4 | 105 nM | 140 nM | – | – | – | – | – | – | – | – | – | – | – | – | O=c1cc2c(nn1Cc1ccccc1)-c1ccc(OCCCN3CCCCC3)cc1CC2 | –
5 | 4.3 nM | 14 nM | > 1000 | < 40% | > 1000 | 11 mL/min/kg | 2% | 84 min | < 40% | 191 ng·h/mL | < 40% | 1.2 L/kg | 34 ng/mL | > 1000 | C[C@@H]1CCCN1CCCOc1ccc2c(c1)CCc1cc(=O)[nH]nc1-2 | –
6 | 6.2 nM | 19 nM | – | < 45% | – | – | – | – | < 45% | – | < 45% | – | – | – | C[C@@H]1CCCN1CCCOc1ccc2c(c1)CCc1n[nH]c(=O)cc1-2 | –
7 | 15 nM | 53 nM | – | – | – | 93 mL/min/kg | 11% | 42 min | – | 96 ng·h/mL | – | 6 L/kg | 27 ng/mL | – | C[C@@H]1CCCN1CCCOc1ccc2c(c1)CCC1CC(=O)NN=C21 (mixture of isomers) | –
8 | 17 nM | 26 nM | – | – | – | – | 44% | – | – | 468 ng·h/mL | – | – | 75 ng/mL | – | O=C1CC2CCc3cc(OC4CCN(C5CCC5)CC4)ccc3C2=NN1 (racemic) | concentration at 6 h [22]: 780 nM; Kp [23]: 5.2; t1/2 [24]: 54 min; Vd [25]: 6.6 L/kg
